Measurements: patent US5268389A, “Thiocarboxylate ester compounds compositions containing the same” (priority 1990, dated 1993)
Where “and” joins values, the source holds several entries; their conditions need not be identical. Identical values can stand only once.

Key:
HIV [1] = test: Reduction of HIV cytopathic effect, CEMZ (CEM line with sub-effective amount of AZT); assay type: cell-based; conditions: CEM cells, read-out: Activity of Anti-HIV Compounds (EC50), CEMZ
Description: (§1) The compounds of Examples were tested for anti-AIDS activity by subjecting them to standard National Cancer Institute ("NCI") in vitro screening procedures. In carrying out each test, two blanks were run. In the first blank, HIV and a culture of a standard human cell line were incubated together to measure the infectivity of the virus. The viability of the cells was measured after holding for six or seven days. In an "effective" test, most cells were infected before the holding period was complete.
(§2) In the second blank, the cell line culture and the compound being tested (but not virus) were incubated together to measure the toxicity of the drug to the cellline. The viability of the cells was measured as a function of concentration of the compound, after holding for seven days. Typically, the cells survive at low compound concentrations, but at some higher concentration, toxicity of the compound is manifested and the cells die. The concentration of the test compound that results in 50% inhibition of cell growth is defined as the IC50.
(§3) Finally, the protective effects of the test compounds were measured. Each cell culture and test compound were incubated with the virus and the viability of the cells was measured as a function of compound concentration after holding for six or seven days. If the compound is active in protecting the cells against the virus, there is typically low cell viability until an effective concentration of the test compound is reached. At this point, cell viability increases steadily toward 100% unless the toxic effect of the compound (as measured in the second blank) takes effect. The concentration of the test compound that results in 50% "control," i.e., a 50% reduction of the viral cytopathic effect, is defined as the EC 50. The therapeutic index TI50 is calculated as IC50/EC50.
(§4) Values of test compound concentrations required for between 20 and 50% reduction of the viral cytopathic effect can also be determined. Such compounds are classified as moderately active.
(§5) The compounds were tested to determine their reduction of HIV cytopathic effect on the human cell lines CEM and MT2. Tests were done by innoculating these cell lines either with free HIV (V) or with a virus Previously cultured with host cells (C). Thus, in Table III the designation CEMV means CEM line cells innoculated with free virus and MT2C means MT2 cells innoculated with cultured viral infected MT2 cells. In some cases the compound was also tested on a cell line together with a sub-effective amount of the known HIV viricide AZT. This is done to test possible synergistic effects. Such a test on the CEM line is denoted CEMZ.

HIV [2] = test: Reduction of HIV cytopathic effect, MT2V (MT2 cells, free virus); assay type: cell-based; conditions: Human immunodeficiency virus 1, read-out: Activity of Anti-HIV Compounds (EC50), MT2V
Description: as §1
(§6) In the second blank, the cell line culture and the compound being tested (but not virus) were incubated together to measure the toxicity of the drug to the cellline. The viability of the cells was measured as a function of concentration of the compound, after holding for seven days. […]
(§7) Finally, the protective effects of the test compounds were measured. Each cell culture and test compound were incubated with the virus and the viability of the cells was measured as a function of compound concentration after holding for six or seven days. […] At this point, cell viability increases steadily toward 100% unless the toxic effect of the compound (as measured in the second blank) takes effect. […] The therapeutic index TI50 is calculated as IC50/EC50.
(§8) Values of test compound concentrations required for between 20 and 50% reduction of the viral cytopathic effect can also be determined. […]

HIV [3] = test: Reduction of HIV cytopathic effect, CEMC (CEM cells, virus previously cultured with host cells); assay type: cell-based; conditions: for EC50: Human immunodeficiency virus 1, CCRF-CEM, read-out: Activity of Anti-HIV Compounds (EC50), CEMC
Description: as §1, §2
as §3, with “The concentration of the test compound that results in 50% "control," i.e., a 50% reduction of the viral cytopathic effect, is defined as the EC 50.” left out
as §8
5) Individual wells are analyzed spectrophotometrically to quantity formazan production, and in addition are viewed microscopically for detection of viable cells and confirmation of protective activity. […]

HIV [4] = test: microbe, parasite or virus in culture; assay type: cell-based
Description: as §1, §2, §3, §4, §5
(§9) 1) T4 lymphocytes (CEM cell line) are exposed to HIV at a virus to cell ratio of approximately 0.05 and plated along with non-infected control cells in 96-well microtiter plates.
(§10) 2) Each candidate agent is dissolved in dimethyl sulfoxide (unless otherwise indicated), then diluted 1:200 in cell culture medium. Further dilutions (five-fold) are prepared before adding to an equal volume of medium containing either infected or noninfected cells.
(§11) 3) Cultures are incubated at 37° C. in a 5% carbon dioxide atmosphere for seven days (if six days the CEMV test is identified as CEM-6).
(§12) 4) The tetrazolium salt, XTT, is added to all wells, and cultures are incubated to allow formazan color development by viable cells.
(§13) 5) Individual wells are analyzed spectrophotometrically to quantity formazan production, and in addition are viewed microscopically for detection of viable cells and confirmation of protective activity.
(§14) 6) Drug-treated virus-infected cells are compared with drug-treated non-infected cells and with other appropriate controls (untreated infected and untreated non-infected cells, drug-containing wells without cells, etc.) on the same plate.
7) A determination of activity is made. […]

HIV [5] = test: Reduction of HIV cytopathic effect, MT2C (MT2 cells inoculated with cultured virus-infected MT2 cells); assay type: cell-based
Description: as §1, §6, §7, §8

[6] = Toxicity of test compound to uninfected CEM cell line (growth inhibition); assay type: cell-based, human; conditions: human, cem cells, read-out: UNINFECTED CULTURE Response (%)
Description: as §2, §9, §10, §11, §12, §13, §14
(§15) The compound of Example 3, viz., methyl 2-chloro-5-[[(5,6-dihydro-2-methyl-1,4-oxathiin-3-yl)carbonyl]amino]benzoate, was tested against the H9/HTLV-IIIB (HIV-I) virus employing the CEM line of host cells and using free virus innoculation (denoted CEM-V). […] All concentrations are expressed in moles per liter.
(§16) The dashed line connecting the square symbols depicts the percentage of surviving uninfected cells treated with the sample relative to the same uninfected, untreated controls. This line expresses the in-vitro growth inhibitory properties of the sample and represents the second blank test.

CEM cells = test: as above; assay type: cell-based, human; conditions: Homo sapiens, CCRF-CEM; CEM cells, uninfected, Table III; read-out: IC50 (50% inhibition of cell growth)
Description: as §2, §9, §10, §11, §12, §13, §14, §15, §16

HIV [7] = test: HIV antiviral activity with addition delayed after infection; assay type: cell-based
[8] = system: succinate dehydrogenase complex; conditions: mitochondria from Ustilago maydis, White et al. (1978); cited from earlier work
HIV [9] = test: Reduction of HIV cytopathic effect, CEM-6 (CEMV test, six days); assay type: cell-based; conditions: inhibition of viral cytopathic effect, CEM cells, 8640 min
Description: as §1, §3, §4, §5, §9, §10, §11, §12, §13, §14

HIV [10] = test: Reduction of HIV cytopathic effect, CEM-IW protocol; assay type: cell-based; conditions: inhibition of viral cytopathic effect, asterisk: CEMIW protocol
Description: as §1, §3, §4, §5
The aforementioned identifiers are used when a batch was prepared and samples inserted into the wells. In procedures calling for the addition of the drug (or no drug) and the CEM uninfected cells to each well, followed by the subsequent addition of the HIV virus, the protocol is designated as CEM-IW.
as §12, §13, §14
Asterisks indicate the CEMIW protocol.

[11] = Human immunodeficiency virus 1, CCRF-CEM
[12] = CEM cells, free HIV, read-out: Activity of Anti-HIV Compounds (EC50), CEMV
[13] = Human immunodeficiency virus 1, CCRF-CEM, CEM cells, free HIV, read-out: Activity of Anti-HIV Compounds (EC50), CEMV

## CC1=C(C(=O)Nc2cc(C(=O)OC(C)C)c(Cl)cc2F)SCCO1 [Compound 2, 1-Methylethyl 2-chloro-5-[[(5,6-dihydro-2-methyl-1,4-oxathiin-3-yl)carbonyl]amino]-4-fluorobenzoate]
HIV [1]; [11]
  EC50: 1.8 µM
HIV [2]
  EC50: 14.4 µM
HIV [3]
  EC50: 3.5 µM
HIV [4]; [12]
  EC50: 1.3 µM
HIV [5]; Human immunodeficiency virus 1, MT2, MT2 cells inoculated with cultured viral infected MT2 cells, read-out: Activity of Anti-HIV Compounds (EC50), MT2C
  EC50: 3.2 µM

## COC(=O)c1cc(NC(=O)C2=C(C)OCCS2)ccc1Cl [Compound 3, Methyl 2-chloro-5-[[(5,6-dihydro-2-methyl-1,4-oxathiin-3-yl)carbonyl]amino]benzoate]
[6]; 1.72 × 10^-4 Molar
  viability at 168 h, 172 µM: 10.1%
[6]; 1.72 × 10^-5 Molar
  viability at 168 h, 17.2 µM: 95.7%
[6]; 1.72 × 10^-6 Molar
  viability at 168 h, 1.72 µM: 84.6%
[6]; 1.72 × 10^-7 Molar
  viability at 168 h, 0.172 µM: 86.8%
[6]; 5.44 × 10^-5 Molar
  viability at 168 h, 54.4 µM: 97%
[6]; 5.45 × 10^-6 Molar
  viability at 168 h, 5.45 µM: 108%
[6]; 5.46 × 10^-7 Molar
  viability at 168 h, 0.546 µM: 84%
[6]; 5.47 × 10^-8 Molar
  viability at 168 h, 0.0547 µM: 86.8%
CEM cells
  IC50: 101 µM
HIV [4]; CEM-V, Figure I, point 6
  concentration of maximum effect: about 1.7×10^-5 molar
HIV [4]; CEM-V, Table III
  CONCLUSION: ACTIVE
HIV [4]; Human immunodeficiency virus 1, CCRF-CEM, 1.72 × 10^-4 Molar, read-out: INFECTED CULTURE Response (%)
  viability at 172 µM: 10.7%
HIV [4]; Human immunodeficiency virus 1, CCRF-CEM, 1.72 × 10^-5 Molar, read-out: INFECTED CULTURE Response (%)
  viability at 17.2 µM: 89.2%
HIV [4]; Human immunodeficiency virus 1, CCRF-CEM, 1.72 × 10^-7 Molar, read-out: INFECTED CULTURE Response (%)
  viability at 0.172 µM: 23.3%
HIV [4]; Human immunodeficiency virus 1, CCRF-CEM, 5.44 × 10^-5 Molar, read-out: INFECTED CULTURE Response (%)
  viability at 54.4 µM: 86.1%
HIV [4]; Human immunodeficiency virus 1, CCRF-CEM, 5.45 × 10^-6 Molar, read-out: INFECTED CULTURE Response (%)
  viability at 5.45 µM: 78.8%
HIV [4]; Human immunodeficiency virus 1, CCRF-CEM, 5.46 × 10^-7 Molar, read-out: INFECTED CULTURE Response (%)
  viability at 0.546 µM: 15.7%
HIV [4]; Human immunodeficiency virus 1, CCRF-CEM, 5.47 × 10^-8 Molar, read-out: INFECTED CULTURE Response (%)
  viability at 0.0547 µM: 15.3%
HIV [4]; Human immunodeficiency virus 1, IIIB, CEM-V, H9/HTLV-IIIB (HIV-I), Table III, read-out: EC50 (50% reduction in the viral cytopathic effect)
  EC50: 1.91 µM
HIV [4]; Human immunodeficiency virus 1, CEM-V, Figure I, point 5, read-out: concentration at which the compound began to show inhibition of the viral cytopathic effect
  minimal effective concentration: ~0.55 µM
HIV [7]; delays of up to twenty hours
  protection with delayed addition: delays of up to twenty hours will still offer some protection
HIV [7]; up to eight hours after infection
  full HIV antiviral activity after infection: full HIV antiviral activity for up to eight hours after infection

## CCOC(=O)c1cccc(NC(=O)C2=C(C)OCCS2)c1 [Compound 8, Ethyl 3-[[(5,6-dihydro-2-methyl-1,4-oxathiin-3-yl)carbonyl]amino]benzoate]
HIV [3]; inhibition of viral cytopathic effect
  Activity class of Anti-HIV Compounds, CEMC: MA (moderate activity (MA), that is, inhibition between approximately 20 and 50%)
[8]
  inhibition of succinate dehydrogenase complex: inhibitors of succinate dehydrogenase complex

## Cc1oc(C)c(C(=O)Nc2ccc(Cl)c(C(=O)OC(C)C)c2)c1C [Compound 16, 1-Methylethyl 2-chloro-5-[[(2,4,5-trimethyl-3-furanyl)carbonyl]amino]benzoate]
HIV [1]; [11]
  EC50: 0.9 µM

## Cc1ccoc1C(=O)Nc1ccc(Cl)c(C(=O)OC(C)C)c1 [Compound 17, 1-Methylethyl 2-chloro-5-[[(3-methyl-2-furanyl)carbonyl]amino]benzoate]
HIV [1]; [11]
  EC50: 7.9 µM
HIV [4]; [13]
  EC50: 3.3 µM

## Cc1ccccc1C(=O)Nc1ccc(Cl)c(C(=O)OC(C)C)c1 [Compound 23, 1-Methylethyl 2-chloro-5-[(2-methylbenzoyl)amino]benzoate]
HIV [1]; [11]
  EC50: 1.1 µM
HIV [4]; [12]
  EC50: 5.6 µM
HIV [4]; [13]
  EC50: 5.8 µM

## CCCOC(=O)c1cc(NC(=O)c2ccccc2C)ccc1Cl [Compound 24, Propyl 2-chloro-5-[(2-methylbenzoyl)amino]benzoate]
HIV [1]; [11]
  EC50: 12 µM

## CC(C)OC(=O)c1cc(NC(=O)c2ccccc2F)ccc1Cl [Compound 25, 1-Methylethyl 2-chloro-5-[(2-fluorobenzoyl)amino]benzoate]
HIV [1]
  EC50: 34.4 µM and 39.4 µM

## CC1=C(C(=O)Nc2ccc(Cl)cc2)SCCS1 [Compound 26, N-(4-Chlorophenyl)-5,6-dihydro-3-methyl-1,4-dithiin-2-carboxamide]
HIV [3]
  EC50: 35.5 µM
HIV [5]; inhibition of viral cytopathic effect, MT2 cells, cultured virus
  Activity class of Anti-HIV Compounds, MT2C: MA (moderate activity (MA), that is, inhibition between approximately 20 and 50%)

## COCCOCCOC(=O)c1cc(NC(=O)C2=C(C)OCCS2)ccc1Cl [Compound 78, 2-(2-Methoxyethoxy)ethyl 2-chloro-5-[[(5,6-dihydro-2-methyl-1,4-oxathiin-3-yl)carbonyl]amino]benzoate]
HIV [9]
  Activity class of Anti-HIV Compounds, CEM-6: MA (moderate activity (MA), that is, inhibition between approximately 20 and 50%)
HIV [10]
  Activity class of Anti-HIV Compounds, CEM-IW: MA (moderate activity (MA), that is, inhibition between approximately 20 and 50%)

## Cc1nc(C)c(C(=O)Nc2ccc(Cl)c(C(=O)OC(C)C)c2)s1 [Compound 94]
HIV [9]
  Activity class of Anti-HIV Compounds, CEM-6: MA (moderate activity (MA), that is, inhibition between approximately 20 and 50%)
HIV [10]
  Activity class of Anti-HIV Compounds, CEM-IW: MA (moderate activity (MA), that is, inhibition between approximately 20 and 50%)

## COC(=O)c1cccc(NC(=O)C2=C(C)OCCS2)c1 [methyl 3-[[(5,6-dihydro-2-methyl-1,4-oxathiin-3-yl)carbonyl]amino]benzoate, reference compound]
[8]
  inhibition of succinate dehydrogenase complex: inhibitors of succinate dehydrogenase complex
